Reference: article PMC5858991 (Neuropharmacology, 2018)
Where “and” joins values, the source holds several entries; their conditions need not be identical. Equal entries are not always repeated. Where two headings read alike, the source gives them in different places.

Key:
σ1R homomer = σ1R homomer (Homo sapiens, UniProt Q99720); assay: Drug induced σ1R homomer BRET; format: cell-based; settings: for effect on σ1R homomer BRET signaling: 2.5-60 min
σ1R [1] = molecular target: σ1R (Cavia porcellus, UniProt Q60492); assay: σ1R radioligand binding in guinea pig cortex with [3H]-
[2] = Experimentally determined pKa
σ1R [3] = molecular target: T1, σ1R (Homo sapiens, UniProt Q99720); format: binding; settings: HEK 293T membrane; for Ki: read-out: Ki ± SEM, competition vs. 3 nM [3H]-(+)-pentazocine
σ1R [4] = molecular target: T1, σ1R; format: binding; settings: for displacement kinetics of [3H]-(+)-pentazocine: membrane preparation and whole cells, 15 min of incubation
σ1R [5] = molecular target: T1, σ1R; format: binding; settings: read-out: Ki ± SEM; competition vs. 2 nM [3H]-haloperidol, HEK 293T membrane
[6] = single-ligand mode, σ1-NL:σ1-VN
[7] = read-out: Ki ± SEM, competition vs. 3 nM [3H]-(+)-pentazocine, guinea pig cortex
[8] = 1 μM haloperidol or 1 μM PD144418 added prior to tested ligand

Sequence of σ1R homomer (Q99720 whole entry): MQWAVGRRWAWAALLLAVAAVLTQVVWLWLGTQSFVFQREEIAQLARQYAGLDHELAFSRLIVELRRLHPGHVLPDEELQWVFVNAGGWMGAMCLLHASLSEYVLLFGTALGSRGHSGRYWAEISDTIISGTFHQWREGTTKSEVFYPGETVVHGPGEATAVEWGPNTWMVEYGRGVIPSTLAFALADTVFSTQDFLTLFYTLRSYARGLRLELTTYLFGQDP
Sequence of σ1R homomer (Q99720 whole entry): as above
T1 sequence (Q99720 whole entry): as above
Sequence of σ1R (Cavia porcellus, UniProt Q60492) (Q60492 whole entry): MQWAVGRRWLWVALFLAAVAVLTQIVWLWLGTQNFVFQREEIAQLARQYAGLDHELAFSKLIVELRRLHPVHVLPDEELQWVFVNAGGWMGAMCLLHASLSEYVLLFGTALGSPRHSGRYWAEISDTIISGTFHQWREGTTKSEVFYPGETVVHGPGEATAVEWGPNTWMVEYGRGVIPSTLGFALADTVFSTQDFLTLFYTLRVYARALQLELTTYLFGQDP

Compound: c1ccc(CCCCN2CCC(c3ccccc3)CC2)cc1 [4-PPBP]
- effect on σ1R homomer BRET in competition mode (σ1R homomer; in the presence of 1 μM PD144418): positive BRET signals were induced
- effect on σ1R homomer BRET signaling (σ1R homomer; [6]): positive dose-dependent induction of BRET signaling
- Ki (σ1R [1]; [7]): 0.857 ± 0.153 nM

Compound: CC(C)=CCN1CC[C@]2(C)c3cc(O)ccc3C[C@H]1[C@H]2C [(+)-pentazocine]
- pKa [2]: 9.2 to 9.3

Compound: CCCCN1[C@@H]2CC[C@H]1CC(OC(c1ccc(F)cc1)c1ccc(F)cc1)C2 (some centres unmarked) [JHW007]
- Ki (σ1R [3]): 0.554 ± 0.172 nM
- displacement kinetics of [3H]-(+)-pentazocine (σ1R [4]): immediate displacement
- effect on σ1R homomer BRET in competition mode (σ1R homomer; [8]): dose-dependent effects
- effect on σ1R homomer BRET signaling (σ1R homomer; [6]): no detectable effects on BRET signaling
- Ki (σ1R [5]): 1.85 ± 0.0579 nM
- Ki (σ1R [1]; [7]): 1.48 ± 0.289 nM

Compound: CCCN(CCC)CCc1ccc(OC)c(OCCc2ccccc2)c1 [NE-100]
- displacement kinetics of [3H]-(+)-pentazocine (σ1R [4]): immediate displacement
- effect on σ1R homomer BRET in competition mode (σ1R homomer; [8]): dose-dependent effects
- effect on σ1R homomer BRET signaling (σ1R homomer; [6]): no detectable effects on BRET signaling
- Ki (σ1R [1]; [7]): 1.14 ± 0.283 nM

Compound: CCCN1CCC=C(c2cc(-c3ccc(C)cc3)no2)C1 [PD144418]
- Ki (σ1R [3]): 0.894 ± 0.11 nM
- Emax (basal subtracted BRET change) (σ1R homomer; [6]): ~0.02
- effect on σ1R homomer BRET signaling (σ1R homomer; [6]): positive dose-dependent induction of BRET signaling
- Ki (σ1R [5]): 2.67 ± 0.578 nM
- Ki (σ1R [1]; [7]): 0.842 ± 0.307 nM

Compound: O=C(OCCN1CCOCC1)C1(c2ccccc2)CCCCC1 [PRE-084, 2-(4-morpholinethyl)1 phenylcyclohexanecarboxylate]
- experimentally determined pKa [2]: 6.2
- displacement of [3H]-(+)-pentazocine (σ1R [4]; membrane preparation, 15 and 120 min): 92.4–96.1%
- displacement of [3H]-(+)-pentazocine (σ1R [4]; whole cell assay, 15 min): 60.6%
- displacement of [3H]-(+)-pentazocine (σ1R [4]; whole cell assay, 120 min): below 76.1%
- effect on σ1R homomer BRET in competition mode (σ1R homomer; [8]): dose-dependent effects
- effect on σ1R homomer BRET signaling (σ1R homomer; [6]): no detectable effects on BRET signaling

Compound: CC(C)=CCN1CC[C@]2(C)c3cc(O)ccc3C[C@H]1[C@H]2C [[^3H]-(+)-pentazocine]
- Bmax ± SEM (σ1R [3]; [3H]-(+)-pentazocine): 2080 fmol/mg and 2080 ± 163 fmol/mg

Compound: COC(=O)[C@H]1[C@@H](OC(=O)c2ccccc2)C[C@@H]2CC[C@H]1N2C [cocaine]
- effect on σ1R homomer BRET in competition mode (σ1R homomer; [8]): dose-dependent effects
- effect on σ1R homomer BRET signaling (σ1R homomer; [6]): no detectable effects on BRET signaling
- Ki (σ1R [1]): 3710 ± 1170 nM
